Experimental data from US10947260B2, “Phosphinolactone derivatives and pharmaceutical uses thereof” (INSTITUT NATIONAL DE LA SANTE ET DE LA RECHERCHE MEDICALE …, priority 2016, dated 2021).

Tested on: APPSwe mice
Test: Spatial learning in pool, APPSwe mice
Assay type: in vivo
Experimental: FIG. 9: Spatial learning in pool (a-c) and object recognition (d-f) for APPSwe mice after 2-month treatment with compound 3b. Pool: acquisition profiles of WT mice treated with V and 3b (2 mg/kg) (a) or APPSwe mice (b). (c) Presence in training quadrant (T) and mean in the other quadrants (o) during trial test performed 48 h after the last training session. Friedman non-parametric ANOVA with repeated measures: Fr=21.7, p<0.001 for the group WT/V, Fr=21.8, p<0.001 for the group WT/3b at (a); Fr=13.0, p<0.05 for group APPSwe/V, Fr=12.2, p<0.05 for group APPSwe/3b at (b). Object recognition: Number of contacts with the objects during sessions 2 and 3 (d) and preferences for object at position 2 computed as contacts (e) or contact time (f). ^∘ p<0.05, ^∘∘ p<0.01 compared with chance level: 15 s at (c), 50% at (e, f), One Sample t-test. ^$ p<0.05, ^$$ p<0.01, ^$$$ p<0.001 compared with the mean of the other quadrants (o) at (c). *p<0.05 compared with group WT/V at (d).
FIG. 11: Spatial learning in pool (a-c) and object recognition (d-f) for APPSwe mice after 2-month treatment with compound 3c. Pool: acquisition profiles of WT mice treated with V and 3c (2 mg/kg) (a) or APPSwe mice (b). (c) Presence in training quadrant (T) and mean in the other quadrants (o) during the trial test performed 48 h after the last training session. Friedman non-parametric ANOVA with repeated measures: Fr=20.7, p<0.001 for group WT/V, Fr=17.5, p<0.001 for group WT/3c at (a); Fr=11.4, p<0.05 for group APPSwe/V, Fr=13.6, p<0.01 for group APPSwe/3b at (b). […]
The pool was a circular water chamber (diameter 140 cm, height 40 cm). […] Swims could be recorded using Videotrack® ViewPoint software, (Champagne-au-Mont-d'Or, France), with trajectories analysed for time and distance. […]
Acquisition phase: this consisted of 3 swims per day for 5 days with an interval of 20 min. […] Swim latency was measured. […] The median of swim times was calculated for each day and expressed for the experimental group as a mean±SEM.
Recall phase: a trial test was conducted […] after the last acquisition session. […] The session was monitored by video and the time spent in the training quadrant (where the platform had been placed) was measured.
After 2-month treatment, the mice were examined with a complex long-term spatial learning test, the locating of an invisible platform in a circular pool 1.5 m in diameter, followed by the object recognition test. […] 48 h after the last acquisition session, the platform was withdrawn from the pool and the time spent in each of the quadrants of the pool was analysed. […]

Structure (SMILES) | spatial performance of WT mice at trial test (2 mg/kg/j IP) | spatial performance of WT mice at trial test (1 mg/kg/d) | pool acquisition profile, APPSwe animals (1 mg/kg/d, 2-month treatment) | presence in the training quadrant at trial test, APPSwe mice (1 mg/kg/d, 48 h after last training)
CC1(C)COP(=O)(c2cccc(Cl)c2)C(C)(C)N1 (racemic) [Compound 3b, (±)-2-(3-Chlorophenyl)-2-oxo-3,3,5,5-tetramethyl-[1,4,2]-oxazaphosphinane] | decrease is noted in spatial performance | – | – | –
CC1(C)COP(=O)(c2ccc(Cl)cc2)C(C)(C)N1 (racemic) [Compound 3c, (±)-2-(4-Chlorophenyl)-2-oxo-3,3,5,5-tetramethyl-[1,4,2]-oxazaphosphinane] | – | decrease is noted in spatial performance | did not affect the acquisition profile | significantly restored preferred presence in the training quadrant
